Test results as given in article PMC7251097, “Aspartate/asparagine-β-hydroxylase: a high-throughput mass spectrometric assay for discovery of small molecule inhibitors” (Scientific Reports, 2020).
Structures can show the parent of a compound that is named as a salt. Where two headings read alike, the source gives them in different places. Blank lines part the entries; values can stand above or below the compound they belong to.

Molecular target: T1, His6-AspH315–758 (human aspartate/asparagine-β-hydroxylase, AspH) (Homo sapiens, UniProt Q12797)
T1 construct: N-Terminally His6-tagged human AspH315–758 (His6-AspH315–758) was produced in E. coli BL21 (DE3) cells; made in house; host or cells: E. coli BL21 (DE3), pET-28a(+) vector
T1 sequence (Q12797 315-758): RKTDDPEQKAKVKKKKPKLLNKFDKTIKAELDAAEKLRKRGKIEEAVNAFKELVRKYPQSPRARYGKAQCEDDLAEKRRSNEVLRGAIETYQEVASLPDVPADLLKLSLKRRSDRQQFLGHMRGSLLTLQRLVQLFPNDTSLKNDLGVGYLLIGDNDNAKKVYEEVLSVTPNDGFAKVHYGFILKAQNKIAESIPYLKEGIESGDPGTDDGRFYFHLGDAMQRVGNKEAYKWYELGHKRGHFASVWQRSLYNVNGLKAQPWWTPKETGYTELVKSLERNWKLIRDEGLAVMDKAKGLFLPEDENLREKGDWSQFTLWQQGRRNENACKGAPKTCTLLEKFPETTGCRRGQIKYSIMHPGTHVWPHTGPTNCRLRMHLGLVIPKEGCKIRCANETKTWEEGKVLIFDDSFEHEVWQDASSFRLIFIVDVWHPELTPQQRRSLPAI
Assay: SPE-MS AspH inhibition assay (LOPAC screen at fixed 20 μM and IC50 dose-response), hydroxylation of cyclic peptide hFX-CP101–119
Format: biochemical

[1] = LOPAC Plate 4, compound at 20 uM, substrate conversion
[2] = LOPAC compound at fixed 20 uM, plate 1, normalised to DMSO and 2,4-PDCA controls
[3] = LOPAC compound at fixed 20 uM, substrate conversion, plate 1
[4] = LOPAC compound at 20uM, plate 3, conversion of substrate peptide
[5] = LOPAC compound at 20uM, plate 2, conversion of substrate peptide
[6] = LOPAC Plate 4, compound at 20 uM

SMILES: NC(N)=NOCC[C@H](N)C(=O)O.O=S(=O)(O)O [L-Canavanine sulfate]
Plate 1 (% conversion): 38.13% | Plate 1 (% inhibition): -6.73%

SMILES: N[C@H]1CON=C1O [L-Cycloserine]
Plate 1 (% inhibition) [2]: -2.43% | Plate 1 (% conversion) [3]: 36.69%

SMILES: N[C@@H](Cn1ccc(=O)c(O)c1)C(=O)O [L-Mimosine from Koa hoale seeds]
% conversion: 35.13% | % inhibition [6]: 3.94%

SMILES: N[C@@H](Cn1ccc(=O)c(O)c1)C(=O)O [L-Mimosine, reference compound]
IC50 (50 nM His6-AspH315–758, 1.0 μM hFX-CP101–119, 3 μM 2OG, 2 μM Fe(II), 50 mM HEPES pH 7.5, 20 °C, mean ± SD, n = 2 (2,4-PDCA n = 10), read-out: IC50): 5.06 ± 0.28 µM

SMILES: C[C@](N)(Cc1ccc(O)cc1)C(=O)O [L-alpha-Methyl-p-tyrosine]
Plate 3 (% conversion): 32.12%

SMILES: O=C(O)[C@@H]1CCN1 [L-azetidine-2-carboxylic acid]
Plate 1 (% conversion): 39.44% | Plate 1 (% inhibition): -10.62%

SMILES: CSc1ccccc1N1CCN(CCCCCC(=O)NC2CCCc3ccccc32)CC1 (stereo not drawn) [LP44]
Plate 3 (% conversion) [4]: 36.33%

SMILES: Cl.O=C(CCCCCN1CCN(c2ccccc2-c2ccccc2)CC1)NC1CCCc2ccccc21 (stereo not drawn) [LP 12 hydrochloride hydrate]
% inhibition [6]: -43.43% | % conversion [1]: 51.29%

SMILES: Nc1nnc(-c2cccc(Cl)c2Cl)c(N)n1 [Lamotrigine]
Plate 3 (% conversion) [4]: 33.75%

SMILES: COC(=O)C1=C(C)NC(C)=C(C(=O)OC(C)(C)CN(C)CCC(c2ccccc2)c2ccccc2)C1c1cccc([N+](=O)[O-])c1.COC(=O)C1=C(C)NC(C)=C(C(=O)OC(C)(C)CN(C)CCC(c2ccccc2)c2ccccc2)C1c1cccc([N+](=O)[O-])c1.Cl.Cl.O (stereo not drawn) [Lercanidipine hydrochloride hemihydrate]
Plate 1 (% inhibition) [2]: 25.41% | Plate 1 (% conversion) [3]: 27.34%

SMILES: CC[C@@H](C(N)=O)N1CCCC1=O [Levetiracetam]
Plate 3 (% conversion): 34.85%

SMILES: CC(=O)NC[C@H]1CN(c2ccc(N3CCOCC3)c(F)c2)C(=O)O1 [Linezolid]
Plate 1 (% inhibition) [2]: -10.54% | Plate 1 (% conversion) [3]: 39.41% | Plate 5 (% inhibition) (plate 5 (Pfitzer), test compounds at fixed 20 μM): 44.21% | Plate 5 (% conversion) (plate 5 (Pfitzer), test compounds at fixed 20 μM, mean conversion DMSO 32.88): 21.27%

SMILES: O=C1N(c2ccccc2)c2ccccc2C1(Cc1ccncc1)Cc1ccncc1 [Linopirdine]
Plate 3 (% conversion) [4]: 41.24%

SMILES: [Cl-].[Li+] [Lithium Chloride]
Plate 2 (% conversion): 35.61% | Plate 2 (% inhibition) (20 µM): 1.04%

SMILES: Nc1nc2c(c(=O)[nH]1)C[C@@H](CCc1ccc(C(=O)N[C@@H](CCC(=O)O)C(=O)O)cc1)CN2.O [Lometrexol hydrate]
Plate 3 (% conversion): 27.08%

Further lines, results first:

% conversion [1]: 30.62%
SMILES: N[C@H](C(=O)O)[C@H](Cc1ccccc1)C(=O)O [L-Beta-threo-benzyl-aspartate]

Plate 1 (% inhibition) [2]: 3.50% | Plate 1 (% conversion) [3]: 34.70%
SMILES: CCCCS(=N)(=O)CC[C@H](N)C(=O)O (stereo partly drawn) [L-Buthionine-sulfoximine]

Plate 1 (% inhibition) [2]: 8.76% | Plate 1 (% conversion) [3]: 32.93%
SMILES: N[C@@H](CS(=O)O)C(=O)O [L-Cysteinesulfinic Acid]

Plate 3 (% conversion) [4]: 7.53%
SMILES: N[C@H](C(=O)O)[C@H](O)c1ccc(O)c(O)c1 [L-DOPS]

Plate 2 (% conversion) [5]: 29.01% | Plate 2 (% inhibition) (LOPAC compound at 20uM, plate 2, normalised to DMSO and 2,4-PDCA controls): 20.74%
SMILES: Cl.N[C@@H](CCC(=O)O)C(=O)O [L-Glutamic acid hydrochloride]

Plate 2 (% conversion) [5]: 35.03% | inhibition at 20 µM (LOPAC compound at 20uM, plate 2, normalised to DMSO and 2,4-PDCA controls, read-out: Plate 2 (% inhibition)): 2.77%
SMILES: NC(=O)CC[C@H](N)C(=O)O [L-Glutamine]

Plate 3 (% conversion) [4]: 40.67%
SMILES: CC(=N)NCCCC[C@H](N)C(=O)O.Cl [L-N6-(1-Iminoethyl)lysine hydrochloride]

% conversion [1]: 29.06%
SMILES: N[C@@H](Cc1c[nH]c2ccccc12)C(=O)O [L-Tryptophan]

Plate 1 (% inhibition) [2]: 0.29% | Plate 1 (% conversion) [3]: 35.78%
SMILES: C=CC[C@H](N)C(=O)O [L-allylglycine]

Plate 3 (% conversion) [4]: 36.38%
SMILES: CC(CCc1ccccc1)NCC(O)c1ccc(O)c(C(N)=O)c1 (stereo not drawn) [Labetalol hydrochloride]

Plate 3 (% conversion) [4]: 37.93%
SMILES: Cc1oncc1C(=O)Nc1ccc(C(F)(F)F)cc1 [Leflunomide]

Plate 3 (% conversion) [4]: 37.37%
SMILES: CCn1cc(C(=O)O)c(=O)c2cc(F)c(N3CCNC(C)C3)c(F)c21 (stereo not drawn) [Lomefloxacin hydrochloride]
